From ChEMBL document CHEMBL1201862, “PubChem BioAssay data set” (2004)
Calls of active or inactive are those of the source.

Key:
Genome polyprotein = Genome polyprotein (dengue virus type 2, UniProt P29990); experiment: flavivirus cap methylation enzyme inhibition – biochemical, confirmation dose response, primary screen (AID 588689); assay type: functional
[1] = biological target: T1, Rac GTPase-activating protein 1 (Homo sapiens, UniProt Q9H0H5); experiment: blockers of MgcRacGAP-driven Rac1 GTP hydrolysis – biochemical, ADP Hunter fluorescence, primary and confirmatory, confirmation (AID 624330); assay type: functional
T1 sequence (Q9H0H5 whole entry): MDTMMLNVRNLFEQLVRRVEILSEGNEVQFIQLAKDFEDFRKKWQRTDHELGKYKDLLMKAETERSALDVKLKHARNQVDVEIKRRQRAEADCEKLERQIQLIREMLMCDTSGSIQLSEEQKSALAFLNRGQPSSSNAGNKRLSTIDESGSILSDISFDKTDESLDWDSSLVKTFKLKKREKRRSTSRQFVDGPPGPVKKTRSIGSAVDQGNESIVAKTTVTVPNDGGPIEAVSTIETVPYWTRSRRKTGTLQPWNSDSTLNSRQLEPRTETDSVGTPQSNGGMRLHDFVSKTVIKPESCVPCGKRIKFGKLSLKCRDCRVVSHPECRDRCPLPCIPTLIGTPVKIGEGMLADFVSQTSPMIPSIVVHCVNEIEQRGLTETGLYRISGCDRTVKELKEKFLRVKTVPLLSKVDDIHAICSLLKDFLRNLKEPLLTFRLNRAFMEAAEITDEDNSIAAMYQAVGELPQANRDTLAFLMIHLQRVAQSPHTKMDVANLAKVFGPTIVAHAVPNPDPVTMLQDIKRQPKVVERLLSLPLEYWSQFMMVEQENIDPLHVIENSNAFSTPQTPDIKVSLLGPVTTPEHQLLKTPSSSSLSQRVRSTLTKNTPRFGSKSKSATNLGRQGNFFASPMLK

[2] = biological target: T2, Zinc finger protein mex-5 (Caenorhabditis elegans, UniProt Q9XUB2); experiment: potency of MEX-5 RNA-binding blockers – biochemical, C. elegans, fluorescence polarization, dose response (AID 1960)
T2 sequence (Q9XUB2 whole entry): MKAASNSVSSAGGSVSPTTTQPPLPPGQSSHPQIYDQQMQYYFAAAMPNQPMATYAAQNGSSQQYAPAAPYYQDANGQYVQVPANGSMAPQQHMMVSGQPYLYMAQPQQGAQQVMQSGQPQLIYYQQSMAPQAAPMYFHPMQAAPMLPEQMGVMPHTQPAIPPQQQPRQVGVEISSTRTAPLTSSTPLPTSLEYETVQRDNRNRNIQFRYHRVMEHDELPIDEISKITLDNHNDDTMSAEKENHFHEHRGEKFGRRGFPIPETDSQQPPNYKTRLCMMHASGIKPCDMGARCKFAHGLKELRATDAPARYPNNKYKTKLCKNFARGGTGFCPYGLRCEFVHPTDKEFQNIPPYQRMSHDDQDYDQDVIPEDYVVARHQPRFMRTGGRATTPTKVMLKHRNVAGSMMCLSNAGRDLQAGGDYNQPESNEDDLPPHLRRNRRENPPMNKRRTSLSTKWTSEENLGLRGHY

[3] = biological target: T3, RNA-binding protein pos-1 (Caenorhabditis elegans, UniProt G5EF15); experiment: disruptors of C. elegans POS-1 RNA interaction – biochemical, fluorescence polarization, dose response (AID 1964);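 note: purified POS-1 fused to maltose binding protein made in E. coli; potency of compounds blocking POS-1 binding to fluorescent RNA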
T3 sequence (G5EF15 whole entry): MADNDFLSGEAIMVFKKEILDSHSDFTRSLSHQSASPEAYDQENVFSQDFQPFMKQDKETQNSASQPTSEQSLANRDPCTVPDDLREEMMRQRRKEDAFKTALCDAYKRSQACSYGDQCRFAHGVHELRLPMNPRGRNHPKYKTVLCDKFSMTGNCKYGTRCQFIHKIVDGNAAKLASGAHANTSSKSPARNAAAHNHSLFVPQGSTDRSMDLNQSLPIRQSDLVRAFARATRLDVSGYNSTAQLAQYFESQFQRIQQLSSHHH

[4] = biological target: T4, Polyadenylate-binding protein 1 (Homo sapiens, UniProt P11940); experiment: MLLE domain peptide-binding blockers, IC50 – biochemical, fluorescence polarization, FITC-PAM2 peptide, dose response (AID 602259); assay type: functional; settings: read-out: IC50_Mean
T4 sequence (P11940 whole entry, the tested form may be a part): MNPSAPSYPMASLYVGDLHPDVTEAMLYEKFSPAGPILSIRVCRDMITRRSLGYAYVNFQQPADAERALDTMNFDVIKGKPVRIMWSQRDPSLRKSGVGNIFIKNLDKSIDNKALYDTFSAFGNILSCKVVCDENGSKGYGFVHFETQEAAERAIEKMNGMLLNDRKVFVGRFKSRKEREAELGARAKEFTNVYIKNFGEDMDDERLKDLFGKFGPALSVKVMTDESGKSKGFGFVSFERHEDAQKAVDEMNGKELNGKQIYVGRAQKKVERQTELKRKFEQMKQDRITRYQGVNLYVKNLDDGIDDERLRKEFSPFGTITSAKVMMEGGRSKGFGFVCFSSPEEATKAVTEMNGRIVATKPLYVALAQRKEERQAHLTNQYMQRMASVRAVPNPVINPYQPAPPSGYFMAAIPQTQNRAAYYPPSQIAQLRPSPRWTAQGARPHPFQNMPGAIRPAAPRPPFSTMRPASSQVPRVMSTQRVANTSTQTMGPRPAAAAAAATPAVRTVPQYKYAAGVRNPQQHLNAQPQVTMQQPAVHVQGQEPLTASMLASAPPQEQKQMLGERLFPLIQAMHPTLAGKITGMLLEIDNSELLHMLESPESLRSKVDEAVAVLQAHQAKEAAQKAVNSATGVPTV

Aminopeptidase N = biological target: T5, Aminopeptidase N (Plasmodium falciparum FcB1/Columbia, UniProt O96935); experiment: malaria alanyl aminopeptidase activity blockers – biochemical, fluorogenic H-Leu-NHMec substrate, 1536-well (AID 1445); design: species or system Plasmodium falciparum 3D7, 3D7
T5 sequence (O96935 whole entry): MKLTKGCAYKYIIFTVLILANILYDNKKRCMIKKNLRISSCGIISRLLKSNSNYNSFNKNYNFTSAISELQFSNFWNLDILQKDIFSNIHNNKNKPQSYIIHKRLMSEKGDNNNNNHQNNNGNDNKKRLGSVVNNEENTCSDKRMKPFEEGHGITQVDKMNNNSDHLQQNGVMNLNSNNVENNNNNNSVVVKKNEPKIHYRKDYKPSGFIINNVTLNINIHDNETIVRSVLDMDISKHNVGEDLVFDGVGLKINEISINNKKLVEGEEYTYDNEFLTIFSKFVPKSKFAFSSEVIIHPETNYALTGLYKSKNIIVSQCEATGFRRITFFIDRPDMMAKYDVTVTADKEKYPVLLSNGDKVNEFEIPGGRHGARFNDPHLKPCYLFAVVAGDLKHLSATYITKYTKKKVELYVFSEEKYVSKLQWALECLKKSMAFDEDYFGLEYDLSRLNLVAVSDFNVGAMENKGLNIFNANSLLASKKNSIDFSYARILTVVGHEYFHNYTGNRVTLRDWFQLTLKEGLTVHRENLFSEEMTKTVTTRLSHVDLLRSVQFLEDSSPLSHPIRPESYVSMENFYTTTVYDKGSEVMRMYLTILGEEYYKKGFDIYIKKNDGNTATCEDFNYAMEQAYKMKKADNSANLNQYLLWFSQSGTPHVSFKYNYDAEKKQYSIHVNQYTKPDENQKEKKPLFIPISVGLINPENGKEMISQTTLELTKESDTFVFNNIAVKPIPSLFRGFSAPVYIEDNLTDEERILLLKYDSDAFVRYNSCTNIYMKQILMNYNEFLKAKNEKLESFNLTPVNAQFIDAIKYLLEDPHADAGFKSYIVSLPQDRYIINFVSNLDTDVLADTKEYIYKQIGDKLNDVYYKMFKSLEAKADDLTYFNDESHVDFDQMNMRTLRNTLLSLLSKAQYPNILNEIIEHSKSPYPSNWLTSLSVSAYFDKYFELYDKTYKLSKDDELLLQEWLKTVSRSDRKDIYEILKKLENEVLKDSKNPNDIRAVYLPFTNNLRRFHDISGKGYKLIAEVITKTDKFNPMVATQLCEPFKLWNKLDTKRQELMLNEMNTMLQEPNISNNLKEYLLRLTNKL

[5] = biological target: T4, Polyadenylate-binding protein 1; experiment: MLLE binding blockers, Cy5 peptide tracer – biochemical, fluorescence polarization, Cy5-PAM2 peptide, secondary, miRNA deadenylation inhibitor project, dose response (AID 602260); assay type: functional; settings: read-out: IC50_Mean
[6] = Luminescence Cell-Based Dose Retest to Confirm Inhibitors of Cancer Stem Cells. [Related pubchem assays (depositor defined):AID2717, AID2721]; assay type: functional; settings: Homo sapiens
[7] = biological target: T6, Microphthalmia-associated transcription factor (Homo sapiens, UniProt O75030); experiment: reducers of TRPM1 reporter luminescence, concentration series – cell-based, SK-MEL-5, cherry-picked, set 3, MITF inhibitor project, dose response (AID 493073); assay type: functional;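 note: SK-MEL-5 melanoma cells with luciferase driven by the MITF target TRPM1 promoter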
T6 sequence (O75030 whole entry): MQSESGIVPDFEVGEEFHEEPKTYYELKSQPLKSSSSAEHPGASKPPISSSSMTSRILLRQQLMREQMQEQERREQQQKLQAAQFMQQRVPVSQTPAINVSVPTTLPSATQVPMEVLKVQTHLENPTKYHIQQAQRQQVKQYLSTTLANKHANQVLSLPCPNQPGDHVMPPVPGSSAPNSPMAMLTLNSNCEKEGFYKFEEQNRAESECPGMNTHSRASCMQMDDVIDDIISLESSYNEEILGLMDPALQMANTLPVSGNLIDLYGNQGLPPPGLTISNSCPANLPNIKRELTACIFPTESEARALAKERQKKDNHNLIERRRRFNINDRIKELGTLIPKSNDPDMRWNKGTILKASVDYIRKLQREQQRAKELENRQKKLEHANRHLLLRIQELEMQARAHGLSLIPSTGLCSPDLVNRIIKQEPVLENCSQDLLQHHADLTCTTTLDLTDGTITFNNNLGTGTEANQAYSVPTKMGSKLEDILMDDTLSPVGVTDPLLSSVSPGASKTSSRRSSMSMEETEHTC

[8] = biological target: T7, Voltage-gated N-type calcium channel alpha-1B subunit/Amyloid beta A4 precursor protein-binding family A member 1 (Homo sapiens, UniProt Q00975+Q02410); assay type: protein assay
T7 sequence (Q00975 whole entry): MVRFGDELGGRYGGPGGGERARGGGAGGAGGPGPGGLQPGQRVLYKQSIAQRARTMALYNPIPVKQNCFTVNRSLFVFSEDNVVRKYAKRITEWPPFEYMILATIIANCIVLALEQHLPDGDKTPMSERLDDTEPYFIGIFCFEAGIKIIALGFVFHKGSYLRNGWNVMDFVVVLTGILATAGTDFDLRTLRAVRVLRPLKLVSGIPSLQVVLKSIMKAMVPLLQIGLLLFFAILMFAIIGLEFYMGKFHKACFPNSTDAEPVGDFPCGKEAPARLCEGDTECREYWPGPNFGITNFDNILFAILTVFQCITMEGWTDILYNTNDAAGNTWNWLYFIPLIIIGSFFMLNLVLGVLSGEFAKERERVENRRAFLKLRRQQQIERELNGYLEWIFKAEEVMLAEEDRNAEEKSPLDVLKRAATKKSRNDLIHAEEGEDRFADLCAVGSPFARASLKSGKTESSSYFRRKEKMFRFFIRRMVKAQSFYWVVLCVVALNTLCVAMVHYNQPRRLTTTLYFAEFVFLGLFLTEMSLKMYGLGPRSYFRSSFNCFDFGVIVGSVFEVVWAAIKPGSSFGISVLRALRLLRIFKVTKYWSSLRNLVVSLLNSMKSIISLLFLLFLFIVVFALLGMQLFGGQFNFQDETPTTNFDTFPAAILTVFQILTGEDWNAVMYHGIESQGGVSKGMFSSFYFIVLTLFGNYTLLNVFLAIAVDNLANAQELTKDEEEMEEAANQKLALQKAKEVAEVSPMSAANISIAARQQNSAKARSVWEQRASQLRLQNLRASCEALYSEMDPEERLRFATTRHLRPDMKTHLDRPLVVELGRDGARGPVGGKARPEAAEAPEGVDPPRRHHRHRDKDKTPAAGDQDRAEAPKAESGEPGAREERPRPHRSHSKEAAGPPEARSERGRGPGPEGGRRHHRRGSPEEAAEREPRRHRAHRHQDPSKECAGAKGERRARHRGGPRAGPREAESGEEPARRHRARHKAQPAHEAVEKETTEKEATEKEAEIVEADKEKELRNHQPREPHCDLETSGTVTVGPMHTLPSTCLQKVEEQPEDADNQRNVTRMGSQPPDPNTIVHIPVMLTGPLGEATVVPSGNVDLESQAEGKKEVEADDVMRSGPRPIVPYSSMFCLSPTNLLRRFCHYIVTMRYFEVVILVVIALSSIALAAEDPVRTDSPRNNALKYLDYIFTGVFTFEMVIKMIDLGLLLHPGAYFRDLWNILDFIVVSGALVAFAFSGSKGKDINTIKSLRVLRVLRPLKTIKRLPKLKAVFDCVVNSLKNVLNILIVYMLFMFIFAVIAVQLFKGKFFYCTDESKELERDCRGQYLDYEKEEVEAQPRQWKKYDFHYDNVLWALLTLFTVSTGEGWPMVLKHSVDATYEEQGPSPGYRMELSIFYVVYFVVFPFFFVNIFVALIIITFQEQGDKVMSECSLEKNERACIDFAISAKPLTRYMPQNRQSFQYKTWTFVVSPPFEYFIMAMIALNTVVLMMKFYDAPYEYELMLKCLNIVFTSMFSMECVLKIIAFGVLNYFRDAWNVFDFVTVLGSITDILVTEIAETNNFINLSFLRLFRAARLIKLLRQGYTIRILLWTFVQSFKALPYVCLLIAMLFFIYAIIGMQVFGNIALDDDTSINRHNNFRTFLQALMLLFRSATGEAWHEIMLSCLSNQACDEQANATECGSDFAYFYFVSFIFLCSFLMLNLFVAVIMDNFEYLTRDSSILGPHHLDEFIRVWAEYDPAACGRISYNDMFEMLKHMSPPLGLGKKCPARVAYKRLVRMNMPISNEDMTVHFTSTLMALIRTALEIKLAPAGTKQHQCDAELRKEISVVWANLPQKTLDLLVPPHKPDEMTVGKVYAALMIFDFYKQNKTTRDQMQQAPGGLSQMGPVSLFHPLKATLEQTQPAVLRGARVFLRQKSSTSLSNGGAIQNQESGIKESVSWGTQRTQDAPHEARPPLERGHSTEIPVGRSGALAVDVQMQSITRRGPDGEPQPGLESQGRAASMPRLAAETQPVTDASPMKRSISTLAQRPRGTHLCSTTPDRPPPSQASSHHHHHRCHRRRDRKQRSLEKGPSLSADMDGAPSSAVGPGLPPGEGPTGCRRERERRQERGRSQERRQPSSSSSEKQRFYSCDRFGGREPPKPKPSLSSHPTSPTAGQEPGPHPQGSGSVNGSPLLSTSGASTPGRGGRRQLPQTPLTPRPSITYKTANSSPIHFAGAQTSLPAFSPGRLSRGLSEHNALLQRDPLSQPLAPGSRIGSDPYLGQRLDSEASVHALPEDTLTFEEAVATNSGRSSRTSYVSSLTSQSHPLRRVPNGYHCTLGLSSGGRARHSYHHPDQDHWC
T7 sequence (Q02410 whole entry): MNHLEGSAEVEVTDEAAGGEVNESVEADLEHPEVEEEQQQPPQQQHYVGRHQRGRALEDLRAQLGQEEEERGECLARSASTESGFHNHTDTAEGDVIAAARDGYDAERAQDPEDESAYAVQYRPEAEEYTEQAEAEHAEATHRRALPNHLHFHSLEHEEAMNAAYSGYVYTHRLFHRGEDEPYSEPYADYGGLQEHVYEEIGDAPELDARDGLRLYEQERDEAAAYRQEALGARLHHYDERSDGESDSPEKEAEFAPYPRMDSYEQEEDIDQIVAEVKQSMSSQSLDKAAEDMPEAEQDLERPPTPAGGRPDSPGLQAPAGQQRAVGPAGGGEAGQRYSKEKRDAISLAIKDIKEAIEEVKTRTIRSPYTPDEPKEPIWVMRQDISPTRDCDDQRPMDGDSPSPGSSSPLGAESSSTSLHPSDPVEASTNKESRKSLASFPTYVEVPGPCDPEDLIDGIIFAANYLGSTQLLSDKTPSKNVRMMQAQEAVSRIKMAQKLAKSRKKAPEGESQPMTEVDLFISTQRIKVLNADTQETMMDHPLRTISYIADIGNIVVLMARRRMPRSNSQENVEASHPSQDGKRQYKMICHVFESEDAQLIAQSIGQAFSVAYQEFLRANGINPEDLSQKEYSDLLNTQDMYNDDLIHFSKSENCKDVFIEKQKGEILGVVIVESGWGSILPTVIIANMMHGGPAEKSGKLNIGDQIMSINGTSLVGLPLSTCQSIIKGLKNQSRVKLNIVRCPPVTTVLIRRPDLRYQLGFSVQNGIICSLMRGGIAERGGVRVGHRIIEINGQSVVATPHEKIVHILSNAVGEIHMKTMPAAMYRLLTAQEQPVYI

Cytochrome P450 2C9 = Cytochrome P450 2C9 (Homo sapiens, UniProt P11712)
Cytochrome P450 2C19 = Cytochrome P450 2C19 (Homo sapiens, UniProt P33261); experiment: Cytochrome panel assay with activity outcomes. Panel member name: p450-cyp2c19 Compounds with AC50 equal or less than 10 uM are considered active; assay type: functional; settings: read-out: AC50
[9] = biological target: T7, Voltage-gated N-type calcium channel alpha-1B subunit/Amyloid beta A4 precursor protein-binding family A member 1; assay type: protein assay; remark: listed apart in the source
[10] = decrease of insulin promoter-GFP reporter – imaging, high-content screening, mouse beta cells (AID 1628); assay type: functional; settings: MIN6
[11] = MIN6 cell viability loss – mouse insulinoma, cytotoxicity control, dose response (AID 2122); assay type: functional;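 note: confirmatory high-throughput counterscreen run to flag cytotoxic compounds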
[12] = biological target: T8, High affinity choline transporter 1 (Homo sapiens, UniProt Q9GZV3); experiment: human choline transporter blockers, potency – cell-based, 5-point CRC, membrane potential dye, dose response (AID 504840); assay type: functional
T8 sequence (Q9GZV3 whole entry): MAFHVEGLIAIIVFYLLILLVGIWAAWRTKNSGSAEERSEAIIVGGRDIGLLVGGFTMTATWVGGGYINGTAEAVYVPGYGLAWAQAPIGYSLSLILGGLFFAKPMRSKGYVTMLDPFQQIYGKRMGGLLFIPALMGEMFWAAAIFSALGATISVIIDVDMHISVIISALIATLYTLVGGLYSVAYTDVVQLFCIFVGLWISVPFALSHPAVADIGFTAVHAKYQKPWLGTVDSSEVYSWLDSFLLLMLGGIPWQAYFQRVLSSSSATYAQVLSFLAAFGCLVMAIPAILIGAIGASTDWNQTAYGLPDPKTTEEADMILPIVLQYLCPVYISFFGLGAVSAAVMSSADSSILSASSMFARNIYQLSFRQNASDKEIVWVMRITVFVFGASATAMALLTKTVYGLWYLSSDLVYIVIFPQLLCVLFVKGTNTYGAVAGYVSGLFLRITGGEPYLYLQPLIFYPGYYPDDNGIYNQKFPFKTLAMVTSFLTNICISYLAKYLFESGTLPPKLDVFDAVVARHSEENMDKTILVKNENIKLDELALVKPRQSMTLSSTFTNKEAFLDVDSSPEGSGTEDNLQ

Sequence of Genome polyprotein (P29990 2492-3391 limits assumed): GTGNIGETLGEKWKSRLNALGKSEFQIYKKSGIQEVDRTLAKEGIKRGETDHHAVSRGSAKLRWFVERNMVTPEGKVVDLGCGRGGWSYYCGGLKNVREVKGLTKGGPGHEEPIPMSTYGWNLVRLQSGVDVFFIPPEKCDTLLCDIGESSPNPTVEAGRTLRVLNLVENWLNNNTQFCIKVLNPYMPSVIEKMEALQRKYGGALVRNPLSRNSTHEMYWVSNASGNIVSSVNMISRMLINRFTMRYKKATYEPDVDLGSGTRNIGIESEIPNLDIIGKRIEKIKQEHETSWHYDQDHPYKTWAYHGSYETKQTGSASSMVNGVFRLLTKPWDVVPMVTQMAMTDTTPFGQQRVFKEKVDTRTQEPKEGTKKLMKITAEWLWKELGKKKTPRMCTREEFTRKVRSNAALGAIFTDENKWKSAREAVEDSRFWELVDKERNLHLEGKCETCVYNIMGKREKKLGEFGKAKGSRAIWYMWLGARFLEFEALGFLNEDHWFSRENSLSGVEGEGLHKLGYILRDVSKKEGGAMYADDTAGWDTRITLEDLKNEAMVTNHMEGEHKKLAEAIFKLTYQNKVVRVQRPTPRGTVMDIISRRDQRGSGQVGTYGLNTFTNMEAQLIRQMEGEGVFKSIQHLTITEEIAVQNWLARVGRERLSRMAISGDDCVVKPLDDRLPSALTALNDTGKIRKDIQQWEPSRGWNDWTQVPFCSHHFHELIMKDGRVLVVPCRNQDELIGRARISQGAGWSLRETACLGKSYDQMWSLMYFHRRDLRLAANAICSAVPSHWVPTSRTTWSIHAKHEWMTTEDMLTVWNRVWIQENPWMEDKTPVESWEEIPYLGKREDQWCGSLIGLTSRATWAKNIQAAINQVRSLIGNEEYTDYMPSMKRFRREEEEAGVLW

Question: Which IC50 (Genome polyprotein) does the source give for `CSc1nc(S)c2[nH]c(S)nc2n1` here?
Answer: 30.6 µM (active)

Question: What about the IC50 [1] of the same compound?
Answer: 32.7 µM (active)

Question: And the EC50 [2]?
Answer: 4.78 µM (active)

Question: And the EC50 [3]?
Answer: 5.15 µM (active)

Question: With `COc1cc(/C=C2/SC(NS(=O)(=O)c3ccccc3)=NC2=O)c([N+](=O)[O-])cc1OC` as the compound, how does the IC50 (Genome polyprotein) read?
Answer: 45.8 µM (active)

Question: What about the IC50 [4] of the same compound?
Answer: > 66 µM (inactive)

Question: What about the IC50 (Aminopeptidase N) of the same compound?
Answer: 24.1 µM (active)

Question: What about the IC50 [5] of the same compound?
Answer: > 66 µM (inactive)

Question: Which AC50 [6] does the source give for `Cc1ccc(N2C(=O)NC(=O)/C(=C/C=C/c3ccco3)C2=O)cc1` here?
Answer: 1.65 µM (active)

Question: And the AC50 [7]?
Answer: 5.97 µM (active)

Question: For `COc1ccc(CC(=O)Nc2ccc(-c3nnc(-c4ccccc4)o3)cc2)cc1`, which IC50 [8] is on record?
Answer: 8.88 µM (active)

Question: And the AC50 (Cytochrome P450 2C9)?
Answer: 224 nM (inconclusive)

Question: And the AC50 (Cytochrome P450 2C19)?
Answer: 1.26 µM (inconclusive)

Question: And the IC50 [9]?
Answer: > 50 µM (inactive)

Question: What does the source list for `CC1(C)CC(N2CCCC2)=CC(=[N+]2CCCCC2)C1`?
Answer: IC50 [10]: < 250 nM (active); IC50 [11]: < 250 nM (active)

Question: For `CCc1ccc(OC(C)C(=O)Nc2ccc(S(=O)(=O)Nc3nccs3)cc2)cc1` (centres undefined), which IC50 [12] is on record?
Answer: 13.8 µM (active)

Question: Which AC50 [7] does the source give for `O=C(CCl)Nc1cccc(S(=O)(=O)NC2=NCCCCC2)c1` here?
Answer: 7.85 µM (active)

Question: Which IC50 [12] does the source give for `CCOC(=O)C1=C(C)N=c2s/c(=C/c3cccc([N+](=O)[O-])c3O)c(=O)n2C1c1cc(OC)c(OC)c(OC)c1` (centres undefined) here?
Answer: 13.2 µM (active)
